# Results published in patent US20230174649A1, “PHARMACEUTICAL COMPOSITIONS CONTAINING ANTI-CD47 ANTIBODIES” (I-MAB BIOPHARMA US LIMITED, priority 2020, published 2023).
# Where “and” joins values, the source holds several entries; their conditions need not be identical. Equal values may be shown once.
# Assays:
# WSU-DLCL2 cells = assay: Anti-tumor efficacy in WSU-DLCL2 tumor xenograft model; type: in vivo, NOD/SCID mice; settings: 5 mg/kg each agent; for T/C (%) / TGI (%): day 43
# Source text: To establish the xenograft model, human diffuse large B Cell lymphoma (WSU-DLCL2 cells) were subcutaneously (s.c.) injected into 6- to 7-week-old NOD/SCID mice (Shanghai Lingchang Biotechnology Co., Ltd, Shanghai, China) for tumor development. When tumor volume reaches a mean value of approximately 94 mm^3, 32 mice were divided into 4 groups of 8 equally and injected intravenously (i.v.) with PBS (control group), anti-CD47 antibody (i.e. T4J), rituximab, or anti-CD47 antibody T4J+ rituximab at a dose of 5 mg/kg, respectively (See, Table 5). The anti-tumor efficacy studies were performed using a twice per week dosing schedule (5 mg/kg) for 4 weeks.
# The first day of antibody administration was designated as day 0. Mice were then monitored for tumor development and progression, and observation continued until day 43. Tumor volumes were measured twice a week in two dimensions (length and width) using a caliper, and the volumes were calculated using the following formula: Volume (V)=(L×W×W)/2, where L is tumor length (the longest tumor dimension) and W is tumor width (the longest tumor dimension perpendicular to L). The percentage of tumor growth inhibition (TGI) was calculated as follows: 100%×(1−[(Vtreated(^finalday)−Vtreated(^initial day))/(Vcontrol(^final day)−Vcontrol(^initial day)))]), where V is the tumor volume. Tumor body weight was measured twice per week after randomization and at day 43. Antibody treatment was then stopped after 43 days of study and mice were euthanized and necropsied for evidence of tumors.
# Group comparisons were carried out using one-way analysis of variance (ANOVA). Data analysis were performed using IBM SPSS software version 18.0 (IBM, Armonk, N.Y., U.S.). Values of tumor volume and tumor body weight were expressed as mean±standard error of the mean (SEM). A P value of less than 0.05 (p<0.05) was considered statistically significant.
# Toledo Cells = assay: FACS-based phagocytosis assay, macrophages cocultured with Toledo cells; type: cell-based, Human
# Experimental: FACS-based phagocytosis assays were performed to evaluate the phagocytic abilities of macrophages.
# Toledo Cells (a tumor cell line, as a target) were labelled with CellTrace™ Far Red and plated into 96-well plate at a density of 0.15×10^6 cells/well for 12 hours. The Macrophages were prepared as discussed above and then labelled with CellTrace Violet. Next, the macrophages were added into the plate as an effector at an effector:target (Toledo) ratio of 1:3, giving a final density of macrophages at 0.05×10^6 cells/well. Macrophages and tumor cells were cocultured for 2-6 h at 37° C. in the presence of the indicated treatments (small molecule therapeutic agents, CD47 antibody, CD20 antibody or combinations). The incubation time depending on the phagocytosis rate, expecting phagocytosis of 5-20% cells.
# Then, cells were acquired and data were analyzed.
# macrophages = assay: Macrophage Viability Assay (CellTiter-Glo); type: cell-based, Human; settings: for Macrophage viability (CellTiter-Glo Luminescent Cell Viability Assay): 16 hours, three replicate lines
# Experimental: Then, the monocytes isolated by MACS were subsequently cultured in fresh complete medium supplemented with recombinant human granulocyte-macrophage colony-stimulating factor GM-CSF (50 ng/ml) and human recombinant IL-4 (35 ng/ml) to activate differentiated macrophages. After 6 days of culture (on day 7), cells were harvested, pooled together and counted for next use.
# The cells from Example 2 were plated into a 96-well flat bottom plate at a density of 0.05×10^6 cells/well. After 2 hours of incubation, the macrophages were well attached to the plate. Then selected small molecule therapeutic agents were added to the well and cocultured for 16 hours. On day 8, macrophage viability was assessed by CellTiter-Glo® Luminescent Cell Viability Assay, according to the manufacture's instruction.
# CD47 = assay: FACS analysis of expression level of CD47 on tumor cell surface; type: cell-based, Human; settings: Toledo cells, 12 hours
# Experimental: (§1) For FACS analysis, on the day of analysis (day 1), Toledo cells were seeded into 96 well plate and cultured at a density of 0.2×10^6 cells/well. Then the cells were treated with the selected small molecule therapeutic agents for 12 hours.
# (§2) On day 2, cells were harvested, washed twice and then re-suspended in 100 uL FACS buffer subject to FACS analysis. For detection of the expression of calreticulin and CD47, cells were incubated with anti-calreticulin antibody and commercially available anti-CD47 antibody (BD Biosciences, Catalog number: 561249) in dark at 4° C. for 30 mins.
# (§3) Then, the cells were subject to FACS analysis. Data was acquired and analyzed.
# Calreticulin = assay: FACS analysis of expression level of calreticulin on tumor cell surface; type: cell-based, Human; settings: Toledo cells, 12 hours
# Experimental: as §1, §2, §3
# [1] = from tumor volume, i.v., BIW × 4 weeks
compound,measurement,setting,value
"Rituximab: anti-CD20 antibody, heavy chain SEQ ID NO: 83, light chain SEQ ID NO: 84",Tumor Body Weight (mg) on day 43 (Mean ± SEM),"WSU-DLCL2 cells; i.v., BIW × 4 weeks",1673.7 ± 269.0 mg
same,Tumor Volume (mm^3) on day 43 (Mean ± SEM),"WSU-DLCL2 cells; i.v., BIW × 4 weeks",1578.37 ± 241.53 mm^3
same,T/C (%),WSU-DLCL2 cells; from tumor body weight,66%
same,TGI (%),WSU-DLCL2 cells; from tumor body weight,34%
same,T/C (%),WSU-DLCL2 cells; [1],73%
same,TGI (%),WSU-DLCL2 cells; [1],27%
same,macrophage phagocytosis (untreated = 1.00),"Toledo Cells; Cpd 0, T4J = 0, R = 0.01 ug/ml, listed as R",1.36 and 1.31 and 1.57 and 1.38
same,phagocytic ability of macrophages,Toledo Cells; agent itself or antibody combination,can promote macrophage phagocytosis
Cn1c(CCCC(=O)O)nc2cc(N(CCCl)CCCl)ccc21 [Bendamustine],Macrophage viability (CellTiter-Glo Luminescent Cell Viability Assay),macrophages; Cpd 0.002 uM,6292 and 6220 and 5908
same,Macrophage viability (CellTiter-Glo Luminescent Cell Viability Assay),macrophages; Cpd 0.008 uM,6248 and 6356 and 6028
same,Macrophage viability (CellTiter-Glo Luminescent Cell Viability Assay),macrophages; Cpd 0.04 uM,6248 and 6124 and 5788
same,Macrophage viability (CellTiter-Glo Luminescent Cell Viability Assay),macrophages; Cpd 0.2 uM,6320 and 6664 and 5768
same,Macrophage viability (CellTiter-Glo Luminescent Cell Viability Assay),macrophages; Cpd 1 uM,6220 and 6200 and 5436
same,Macrophage viability (CellTiter-Glo Luminescent Cell Viability Assay),macrophages; Cpd 5 uM,6424 and 6308 and 5064
same,Macrophage viability (CellTiter-Glo Luminescent Cell Viability Assay),macrophages; Cpd 25 uM,5884 and 5724 and 4340
same,Macrophage viability (CellTiter-Glo Luminescent Cell Viability Assay),macrophages; Cpd 50 uM,5500 and 5736 and 4112
same,toxicity to macrophages,macrophages; dose as high as 50 μM,showed toxicity
same,toxicity to macrophages,macrophages; dose lower than 10 μM,little toxic
same,macrophage phagocytosis (untreated = 1.00),"Toledo Cells; Cpd 0.0016 uM, T4J = 0, R = 0",1.06
same,macrophage phagocytosis (untreated = 1.00),"Toledo Cells; Cpd 0.0016 uM, T4J = 0, R = 0.01 ug/ml",1.58
same,macrophage phagocytosis (untreated = 1.00),"Toledo Cells; Cpd 0.0016 uM, T4J = 0.1 ug/ml, R = 0",2.53
same,macrophage phagocytosis (untreated = 1.00),"Toledo Cells; Cpd 0.0016 uM, T4J = 0.1 ug/ml, R = 0.01 ug/ml",3.29
same,macrophage phagocytosis (untreated = 1.00),"Toledo Cells; Cpd 0.008 uM, T4J = 0, R = 0",1.00
same,macrophage phagocytosis (untreated = 1.00),"Toledo Cells; Cpd 0.008 uM, T4J = 0, R = 0.01 ug/ml",1.52
same,macrophage phagocytosis (untreated = 1.00),"Toledo Cells; Cpd 0.008 uM, T4J = 0.1 ug/ml, R = 0",2.67
same,macrophage phagocytosis (untreated = 1.00),"Toledo Cells; Cpd 0.008 uM, T4J = 0.1 ug/ml, R = 0.01 ug/ml",3.26
same,macrophage phagocytosis (untreated = 1.00),"Toledo Cells; Cpd 0.04 uM, T4J = 0, R = 0",0.98
same,macrophage phagocytosis (untreated = 1.00),"Toledo Cells; Cpd 0.04 uM, T4J = 0, R = 0.01 ug/ml",1.53
same,macrophage phagocytosis (untreated = 1.00),"Toledo Cells; Cpd 0.04 uM, T4J = 0.1 ug/ml, R = 0",2.57
same,macrophage phagocytosis (untreated = 1.00),"Toledo Cells; Cpd 0.04 uM, T4J = 0.1 ug/ml, R = 0.01 ug/ml",3.19
same,macrophage phagocytosis (untreated = 1.00),"Toledo Cells; Cpd 0.2 uM, T4J = 0, R = 0",0.96
same,macrophage phagocytosis (untreated = 1.00),"Toledo Cells; Cpd 0.2 uM, T4J = 0, R = 0.01 ug/ml",1.41
same,macrophage phagocytosis (untreated = 1.00),"Toledo Cells; Cpd 0.2 uM, T4J = 0.1 ug/ml, R = 0",2.51
same,macrophage phagocytosis (untreated = 1.00),"Toledo Cells; Cpd 0.2 uM, T4J = 0.1 ug/ml, R = 0.01 ug/ml",3.10
same,macrophage phagocytosis (untreated = 1.00),"Toledo Cells; Cpd 1 uM, T4J = 0, R = 0",1.03
same,macrophage phagocytosis (untreated = 1.00),"Toledo Cells; Cpd 1 uM, T4J = 0, R = 0.01 ug/ml",1.46
same,macrophage phagocytosis (untreated = 1.00),"Toledo Cells; Cpd 1 uM, T4J = 0.1 ug/ml, R = 0",2.47
same,macrophage phagocytosis (untreated = 1.00),"Toledo Cells; Cpd 1 uM, T4J = 0.1 ug/ml, R = 0.01 ug/ml",3.05
same,phagocytic ability of macrophages,"Toledo Cells; triple combination: T4J, Rituximab and the small molecule",does not show the synergistic effects
same,Mean Fluorescence Intensity (MFI) CD47,CD47; 0.008 uM,9132
same,Mean Fluorescence Intensity (MFI) CD47,CD47; 0.04 uM,8684
same,Mean Fluorescence Intensity (MFI) CD47,CD47; 0.2 uM,8687
same,Mean Fluorescence Intensity (MFI) CD47,CD47; 1 uM,8319
same,Mean Fluorescence Intensity (MFI) CD47,CD47; 5 uM,9192
same,Mean Fluorescence Intensity (MFI) Calreticulin,Calreticulin; 0.008 uM,68.6
same,Mean Fluorescence Intensity (MFI) Calreticulin,Calreticulin; 0.04 uM,70.1
same,Mean Fluorescence Intensity (MFI) Calreticulin,Calreticulin; 0.2 uM,70.2
same,Mean Fluorescence Intensity (MFI) Calreticulin,Calreticulin; 1 uM,76.3
same,Mean Fluorescence Intensity (MFI) Calreticulin,Calreticulin; 5 uM,86.2
